Converted amounts (≈) assume the structure as drawn. Where two headings read alike, the source gives them in different places.
Key:
Assay type in all cases: physicochemical
[1] = Solubility of monomer in water and ethanol
Description: (§1) The solubility of monomer 1 in water and ethanol was determined and the pH value of a 20% solution of the monomer in a 1:1 mixture of ethanol and water measured.

[2] = pH value (acid strength) of a 20% monomer solution; settings: text: 1:1 mixture of ethanol and water
Description: as §1

[3] = Hydrolytic stability by weekly 1H-NMR of stored solution; settings: 20% solution in 1:1 water/ethanol, stored at 37° C., 8-week investigation period
Description: Monomer 1 is dissolved in a 1:1 mixture of water and ethanol and a 20% solution is stored at 37° C. The ^1H-NMR spectrum of the solution is recorded weekly.

[4] = water, read-out: water solubility

C=C(COCCP(=O)(O)O)C(=O)O [Comparison monomer, 2-[4-dihydroxyphosphoryl-2-oxa-butyl]-acrylic acid, reference compound]
solubility in ethanol ([1]; ethanol): practically insoluble | solubility [1, 4]: ~400 mg/mL (≈ 1900 mM) | pH value of a 20% solution [2]: 1.25

C=C(COCCP(=O)(O)OC)C(=O)O [Monomer 1, 2-[4-hydroxymethoxyphosphoryl-2-oxa-butyl]-acrylic acid]
solubility ([1]; ethanol, organic solvent or mixture, read-out: solubility in ethanol): > 500 mg/mL | solubility [1, 4]: > 500 mg/mL | pH value of a 20% solution [2]: 0.61 | hydrolytic stability (change in 1H-NMR spectrum) [3]: no change in the spectrum
